Reference: publication PMC11965388 (Nature Communications, 2025)

Legend:
pain = conditions: mice; cited from earlier work
[1] = molecular target: T1, α6β4^L121F (human α6β4 nAChR, L121F in β4) (Homo sapiens, UniProt P30926+Q15825, L142F); assay: cell-based
[2] = molecular target: T1, α6β4^L121F (human α6β4 nAChR, L121F in β4); conditions: L121F vs WT, two-electrode voltage clamp
neuropathic pain = conditions: cited from earlier work
[3] = molecular target: human α6β4 nAChR (α6β4^WT) (Homo sapiens, UniProt P30926+Q15825); assay: Two-electrode voltage clamp in Xenopus oocytes, wild-type α6β4; assay type: cell-based; conditions: times higher affinity than nicotine
Chain of human α6β4 nAChR (α6β4^WT) (Q15825 31-494 limits assumed): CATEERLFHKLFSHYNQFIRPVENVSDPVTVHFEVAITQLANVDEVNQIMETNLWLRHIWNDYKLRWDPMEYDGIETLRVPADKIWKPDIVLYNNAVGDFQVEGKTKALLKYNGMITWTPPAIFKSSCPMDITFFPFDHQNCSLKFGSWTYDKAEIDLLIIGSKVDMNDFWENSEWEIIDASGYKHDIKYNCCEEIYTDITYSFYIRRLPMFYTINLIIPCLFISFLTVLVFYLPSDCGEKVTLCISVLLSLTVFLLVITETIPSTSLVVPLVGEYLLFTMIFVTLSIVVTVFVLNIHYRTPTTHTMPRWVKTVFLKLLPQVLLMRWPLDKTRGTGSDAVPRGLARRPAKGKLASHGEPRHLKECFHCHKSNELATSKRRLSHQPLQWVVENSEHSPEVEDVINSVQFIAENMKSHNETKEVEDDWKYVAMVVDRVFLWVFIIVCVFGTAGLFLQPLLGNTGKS
Chain of human α6β4 nAChR (α6β4^WT) (P30926 22-498): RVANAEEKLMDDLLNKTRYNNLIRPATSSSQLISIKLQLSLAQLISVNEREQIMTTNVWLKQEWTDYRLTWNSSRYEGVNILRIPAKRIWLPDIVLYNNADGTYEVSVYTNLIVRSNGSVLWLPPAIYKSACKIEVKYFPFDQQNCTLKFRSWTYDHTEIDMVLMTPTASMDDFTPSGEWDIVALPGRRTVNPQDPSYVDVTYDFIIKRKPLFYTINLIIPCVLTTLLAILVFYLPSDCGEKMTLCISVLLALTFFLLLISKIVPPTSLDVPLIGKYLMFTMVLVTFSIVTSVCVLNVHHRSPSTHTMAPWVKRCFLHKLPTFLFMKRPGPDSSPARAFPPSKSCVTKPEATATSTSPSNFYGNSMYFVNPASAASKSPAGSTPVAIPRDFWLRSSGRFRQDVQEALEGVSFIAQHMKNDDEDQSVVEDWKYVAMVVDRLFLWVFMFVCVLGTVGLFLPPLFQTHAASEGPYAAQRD

T1 sequence (Q15825 31-494 limits assumed): as the sequence (Q15825 31-494 limits assumed) above
T1 sequence (P30926 22-498 L142F): as the sequence (P30926 22-498) above, with L121F counted along it

Row | Structure (SMILES) | analgesic effect (pain) | EC50 [1] | increase of binding affinity of α6β4 for nicotine by L121F mutation in β4 [2] | analgesic activity against neuropathic pain (neuropathic pain) | affinity for α6β4 relative to nicotine [3]
1 | CN1CCC[C@H]1c1cccnc1 [nicotine] | effective analgesics | 2200 ± 400 nM | approximately 10 fold |  | 
2 | Clc1ccc(OC[C@H]2CCN2)cn1 [tebanicline, (R)-5-(2-azetidinylmethoxy)-2-chloropyridine] | effective analgesics |  |  | potent analgesic activity | approximately 50 times
